Source: US20080287398A1, “COLD MENTHOL RECEPTOR-1 ANTAGONISTS” (priority 2007, published 2008)
Like-named read-outs stand apart in the source and are kept apart here.

Experiments:
[1] = target: T1, canine TRPM8 (Canis lupus familiaris, UniProt Q1A7N1); test: In vitro canine TRPM8 functional assay (Ca2+-sensitive dye, FLIPR/FDSS, icilin activation); format: cell-based; conditions: HEK293 cells expressing canine TRPM8, icilin activation; for inhibition at 0.5 µM: HEK293, 0.5 μM compound, read-out: % I (0.5 μM); for IC50: eight-point dose-response, read-out: IC50
T1 construct: expressed in transfected cells
T1 sequence (Q1A7N1 1-1104): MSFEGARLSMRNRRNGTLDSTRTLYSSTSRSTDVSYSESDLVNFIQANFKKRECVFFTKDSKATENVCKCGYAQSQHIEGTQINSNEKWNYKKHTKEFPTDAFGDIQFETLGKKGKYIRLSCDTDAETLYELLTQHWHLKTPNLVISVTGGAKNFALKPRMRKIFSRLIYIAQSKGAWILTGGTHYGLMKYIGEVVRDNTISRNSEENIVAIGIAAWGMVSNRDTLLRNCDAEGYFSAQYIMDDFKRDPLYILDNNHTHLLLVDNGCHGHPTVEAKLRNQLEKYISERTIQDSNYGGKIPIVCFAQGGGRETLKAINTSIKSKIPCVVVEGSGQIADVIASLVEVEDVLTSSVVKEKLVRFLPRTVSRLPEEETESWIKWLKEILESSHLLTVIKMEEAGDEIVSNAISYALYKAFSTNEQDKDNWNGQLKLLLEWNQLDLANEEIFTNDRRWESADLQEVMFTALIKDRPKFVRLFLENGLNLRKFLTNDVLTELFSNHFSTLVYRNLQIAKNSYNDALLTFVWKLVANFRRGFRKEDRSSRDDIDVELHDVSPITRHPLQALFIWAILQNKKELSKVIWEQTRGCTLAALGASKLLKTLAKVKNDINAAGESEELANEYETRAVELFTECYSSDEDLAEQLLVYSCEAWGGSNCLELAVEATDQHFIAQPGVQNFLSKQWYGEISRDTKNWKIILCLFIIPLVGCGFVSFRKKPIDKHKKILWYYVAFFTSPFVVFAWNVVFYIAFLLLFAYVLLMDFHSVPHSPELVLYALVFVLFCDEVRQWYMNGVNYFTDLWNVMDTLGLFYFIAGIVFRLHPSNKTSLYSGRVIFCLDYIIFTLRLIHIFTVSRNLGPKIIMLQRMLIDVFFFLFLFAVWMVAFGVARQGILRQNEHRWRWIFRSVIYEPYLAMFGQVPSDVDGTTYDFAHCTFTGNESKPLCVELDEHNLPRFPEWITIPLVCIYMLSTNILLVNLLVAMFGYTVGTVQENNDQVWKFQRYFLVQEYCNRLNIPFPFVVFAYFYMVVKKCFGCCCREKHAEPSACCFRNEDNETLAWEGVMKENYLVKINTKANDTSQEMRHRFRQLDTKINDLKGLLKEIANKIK
Summary of the method: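 HEK293 cells stably expressing canine TRPM8, loaded with Calcium 3 dye, preincubated with compound for 5 min before icilin at a concentration giving ~80% maximal response. Ca2+ fluorescence by FLIPR or FDSS; basal-subtracted, normalized to % maximal response, quadruplicate wells, sigmoidal fit for EC50/IC50.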

[2] = tested on: mice; test: CFA-induced paw cold hypersensitivity (acetone-evoked paw licking); format: in vivo; conditions: mouse; 60 mg/kg p.o.; time 30′; acetone licking duration vs vehicle
Experimental: Prior to intraplantar CFA injection mice were placed individually in elevated observation chambers having wire mesh floors. Through the mesh floor a series of three applications of acetone (0.04 mL/application) was sprayed onto the bottom of the paw using a multidose syringe device. A positive response took the form of an abrupt withdrawal and licking of the paw. The cumulative duration of licking was recorded for each of the three trials which were then averaged to give the individual's response. Twenty-four hours following CFA injection acetone licking durations were markedly elevated implying a hypersensitivity to cooling. A test compound of Formula (I) was assessed for its ability to return acetone-evoked paw licking durations to pre-CFA levels (typically near zero) following systemic administration. Percent inhibition was calculated % inhibition=[1−(treatment licking duration/vehicle licking duration)]×100.

[3] = tested on: Male Sprague-Dawley rats; test: Cold pressor test in anesthetized rat; format: in vivo; conditions: 6 mg/kg i.v., time 10′, mean arterial pressure change on forelimb ice
Experimental: Compounds of Formula (I) can be tested in animals and humans for their ability to mitigate cardiovascular pressor responses evoked by cold exposure. The clinical cold pressor test assesses changes in blood pressure (BP) and cold pain perception during a 2-3 minute immersion of one hand into ice water. This test may be utilized to characterize analgesic compounds (Koltzenberg M et al. Pain. 2006, 126(1-3): 165-74) and to assess cold hypersensitivity (Desmeules J A et al. Arthritis Rheum. 2003, 48(5): 1420-9). A compound of Formula (I) was studied in an anesthetized rat cold pressor paradigm to determine whether TRPM8 antagonism would interfere with the blood pressure pressor response to cold stimulation of the forepaws. Male Sprague-Dawley rats (300-450 g) anesthetized with sodium pentobarbital were instrumented with a jugular catheter and an indwelling carotid artery pressure transducer. Vehicle (10% Solutol in water) or test compound was infused (1 mL/kg) over one minute through the intravenous catheter. […] Percent changes in mean arterial pressure in response to this cold stimulus were calculated for vehicle and test compound pretreatments. Percent inhibition attributed to treatment with test compound was then determined using the following formula: % Inhibition=[1−(cold evoked % change in BP post-test compound/cold evoked % change in BP post-vehicle)]×100.

[4] = tested on: Male Sprague Dawley rats; test: Inhibition of icilin-induced wet-dog shakes in rats; format: in vivo; conditions: rat, 15′ pre icilin
[5] = tested on: Sprague-Dawley rats; test: CFA-induced paw radiant heat hypersensitivity; format: in vivo, rat; conditions: po, rat; for inhibition in vivo at 30 mg/kg: 30 mg/kg p.o., read-out: % Reversal
Experimental: Intraplantar injection of Complete Freund's Adjuvant (CFA) in rodents results in a long-lasting inflammatory reaction, characterized by a pronounced hypersensitivity to both thermal and mechanical stimuli. This hypersensitivity peaks between 24-72 hours following injection and can last for several weeks. […] This paradigm also may be conducted with a multiple dosing or a prophylactic dosing regime designed to alter the course of hyperalgesia development. This test predicts the analgesic, anti-allodynic and antihyperalgesic effect of numerous effective clinical agents, including NSAIDS such as acetaminophen, aspirin and ibuprofen, and opioids such as morphine.
Each rat was placed in a test chamber on a warm glass surface and allowed to acclimate for approximately 10 minutes. A radiant thermal stimulus (beam of light) was then focused through the glass onto the plantar surface of each hind paw in turn. The thermal stimulus was automatically shut off by a photoelectric relay when the paw was moved or when the cut-off time was reached (20 seconds for radiant heat at ˜5 Amps). An initial (baseline) response latency to the thermal stimulus was recorded for each animal prior to the injection of CFA. Twenty-four hours following intraplantar CFA injection, the response latency of the animal to the thermal stimulus was then re-evaluated and compared to the animal's baseline response time. […] Immediately following the post-CFA latency assessment, test compound or vehicle (usually Solutol, hydroxypropyl methylcellulose, hydroxypropyl beta-cyclodextrin or PEG-400) was administered i.p. or p.o. to rats. […] The percent reversal (% R) of hypersenstivitiy was calculated according to the following formula:
% Reversal=(Treatment Response-CFA Response)/(Baseline Response-CFA Response)×100.

| Structure (SMILES) | inhibition at 0.5 µM [1] | IC50 [1] | % I [2] | % I (inhibition of cold-induced pressor response) [3] | ED50 ([4]; po) | % Inhibition ([4]; 10 mg/kg p.o.) | % Inhibition ([4]; 30 mg/kg p.o.) | % Inhibition ([4]; 100 mg/kg p.o.) | inhibition in vivo at 30 mg/kg ([5]; time 1 h) | inhibition in vivo at 30 mg/kg ([5]; time 2 h (printed 2 h or 2)) | ED50 ([5]; p.o., read-out: ED50) |
| --- | --- | --- | --- | --- | --- | --- | --- | --- | --- | --- | --- |
| CC(C)OP(=O)(OC(C)C)[C@@H](Cc1ccc(F)c(C(F)(F)F)c1)c1sc2ccccc2c1Br [Cpd 242, (S)-[1-(3-Bromo-benzo[b]thiophen-2-yl)-2-(4-fluoro-3-trifluoromethyl-phenyl)-ethyl]-phosphonic acid diisopropyl ester] | 103% | 9 nM | 84% | 54% |  |  |  |  |  |  |  |
| CC(C)OP(=O)(OC(C)C)[C@@H](Cc1ccc(F)c(F)c1)c1sc2ccccc2c1Br [Cpd 234, (S)-[1-(3-Bromo-benzo[b]thiophen-2-yl)-2-(3,4-difluoro-phenyl)-ethyl]-phosphonic acid diisopropyl ester] | 104% | 29 nM |  |  | 24.3 mg/kg | 14.2% | 68.0% | 92.9% | 75% | 56% | 6.6 mg/kg |
